Experimental data reported in patent publication US20050002861A1, “Enhanced scintigraphic imaging agents for imaging of infection and inflammation” (priority 2003, published 2005).
Where no end group is shown, it is not given here.

System: muscle tissue infected by E. coli
Assay: E. coli rabbit infection model: infection uptake and biodistribution of Tc-99m PGC's
Type: in vivo, New Zealand White (NZW) rabbits
Conditions: only some lysines replaced by arginine; compared with Tc-99m P1827H
Description: In yet another aspect of the present invention, the compositions of the invention are capable of achieving a favorable biodistribution that is characterized by a specific accumulation at the site to be imaged, e.g. in an infected muscle, and at the same time a low concentration in uninfected areas, such as normal muscle or blood. The biodistribution of the radiolabeled compositions of the invention may be expressed by means of an image contrast ratio. The image contrast ratio can be determined as the ratio Imax(infected muscle)/Imax(control muscle), hereinafter referred to as Imax:C, i.e., the maximum radioactivity accumulated in an infected muscle sample versus the maximum radioactivity accumulated in a control, i.e., uninfected, muscle sample. The radioactivity is measured as % of injected dose per gram of tissue/blood, i.e., % ID/g. For the determination of Imax values (and Iavg values; see below), the tissue or blood samples are divided into six parts of equal size/weight and the radioactivity in each of the six samples is counted. The sample with the highest radioactivity is used for the Imax value (the average of all six samples was used for Iavg). Imax (and Iavg) values are expressed as % ID/g. […]

Substance	improvement over Tc-99m P1827H
Ac-RRRRRCGCGGPLYKKIIKKLLES (cysteine pairing not given here) [P1828]	no significant improvement
Ac-KKKKKCGCGGPLYRRIIRRLLES (cysteine pairing not given here) [P1829]	no significant improvement
